Literature values as cited in patent publication US6297274A, “Nonpeptide endothelin antagonists with increased water solubility” (priority 1998, dated 2001).
Where a SMILES comes first, the peptide text is derived from it. [ ]: non-standard residue; d: D form.

Tests used:
[1] = system: ET-1 induced bronchoconstriction and tracheal smooth muscle contraction; conditions: allergic sheep; cited from earlier work
[2] = system: rat hypoxia model of hypertension; conditions: cited from earlier work
[3] = system: early cerebral vasospasm following subarachnoid hemorrhage (SAH); conditions: in vivo; cited from earlier work
[4] = system: ET-1-induced gastric ulceration; conditions: in vivo; cited from earlier work
[5] = system: early cerebral vasospasm following SAH in the rat; conditions: cited from earlier work
[6] = system: vasoconstriction of the basilar artery; conditions: after 7 days, canine two-hemorrhage model; cited from earlier work
liver = conditions: cited from earlier work
small intestinal mucosa = conditions: rats, local intra-arterial; cited from earlier work

## CC(C)C[C@@H]1NC(=O)[C@@H](C(C)C)NC(=O)[C@@H]2CCCN2C(=O)[C@@H](CC(=O)O)NC(=O)[C@@H](Cc2c[nH]c3ccccc23)NC1=O [BQ-123] (cyclo(L[dW][dD]P[dV]))
[1]
  ET-1 induced bronchoconstriction and tracheal smooth muscle contraction: shown to block ET-1 induced bronchoconstriction and tracheal smooth muscle contraction in allergic sheep
[2]
  pulmonary vascular resistance and pulmonary arterial pressure: provide protection in a rat hypoxia model of hypertension by lowering the increase in pulmonary vascular resistance and pulmonary arterial pressure
[3]
  early cerebral vasospasm following SAH: prevent early cerebral vasospasm following subarachnoid hemorrhage (SAH)

## COc1ccccc1Oc1c(NS(=O)(=O)c2ccc(C(C)(C)C)cc2)nc(-c2ncccn2)nc1OCCO [Bosentan]
[2]
  pulmonary vascular resistance and pulmonary arterial pressure: provide protection in a rat hypoxia model of hypertension by lowering the increase in pulmonary vascular resistance and pulmonary arterial pressure
[4]
  ET-1-induced changes in gastric mucosal hemodynamics and gastric ulceration: antagonist toward the ET-1-induced changes in gastric mucosal hemodynamics as well as on ET-1-induced gastric ulceration

## COc1cccc(Oc2c(NS(=O)(=O)c3ccc(C(C)(C)C)cc3)ncnc2OCCO)c1 [Ro 46-2005]
[5]
  early cerebral vasospasm following SAH: prevent early cerebral vasospasm following SAH in the rat

## FR 139317
[6]
  vasoconstriction of the basilar artery: significantly inhibited the vasoconstriction of the basilar artery

## endothelin
liver
  hepatic vasculature vasoconstriction and hepatic glucose output: eliciting both sustained vasoconstriction of the hepatic vasculature and a significant increase in hepatic glucose output
Small intestinal mucosa
  small intestinal mucosal damage: shown to induce small intestinal mucosal damage in rats in a dose-dependent manner
